# Counter-ions that a name gives are not always drawn. Like-named read-outs stand apart in the source and are kept apart here.
# Columns and labels:
# [1] = commercial compound, background statement; cited from earlier work
# [2] = cited from earlier work
# [3] = Thermal decomposition half-life; type: physicochemical
# Procedure: (§1) It produces 179 cc. of gas per gram at 110° C. The following half-life data have been determined:
# The following half-life data have been determined by gas evolution technique using trichlorobenzene as the solvent: […]
# [4] = Curing of unsaturated polyester-styrene resin
# Procedure: An unsaturated polyester resin was made by reacting maleic anhydride (1.0 mole), phthalic anhydride (1.0 mole), and propylene glycol (2.2 moles) until an acid number of 45-50 was obtained. To this was added hydroquinone at a 0.013% concentration. Seven parts of this unsaturated polyester was diluted with 3 parts of monomeric styrene to obtain a homogeneous blend having a viscosity of 13.08 poise and a specific gravity of 1.14.
# To 20 grams of this blend was added 0.128 gram of alpha-(tert.-butylazo)isobutyronitrile and the resultant composition placed in a constant temperature bath at 212° F. (100° C.). […] At 180° F. (82.2° C.), a peak exotherm of 381° F. (193.9° C.) was obtained in 13.3 minutes. The resultant cured materials were very hard.
# The procedure of Example III was used at 212° F. (100° C.) and 240° F. (115.6° C.) where peak exotherms of 414° F. (212.2° C.) and 440° F. (226.7° C.) were obtained after 10.0 and 5.3 minutes respectively using 0.2 gram of the 1-tert.-butylazo-1-cyanocyclohexane. The resultant cured resins were very hard.
# The curing procedure and resin are described in Example III.
# [5] = Preliminary toxicological studies / toxicity
# Solubility = type: physicochemical; details: petroleum and other organic solvents
# [6] = High pressure polymerization of ethylene
# [7] = Gas volume generated on thermal decomposition; type: physicochemical; details: 130° C.
# Procedure: as §1
# It produces 146 cc. of gas per gram at 130° C.
# [8] = Curing of unsaturated polyester-styrene resin; remark: listed apart in the source
# [9] = Polymerization of styrene, dilatometer rates; details: rate at 10% conversion
# Procedure: A solution of styrene containing 5 × 10^-^4 moles per deciliter of alpha-(tert.-butylazo)isobutyronitrile was heated at 85° C. and the change in density, which is a measure of polymer formation, was followed by means of a dilatometer to measure polymerization rates at 5% and 10% conversion to polystyrene. […] Without the alpha-(tert.-butylazo)-isobutyronitrile, the 5 and 10% rates were 0.92 × 10^-^3 moles per liter per minute. Thus, this azo compound initiated the polymerization of styrene at 85° C.
# The procedure of Example II was used at 85° C. and 100° C. […] Without the 1-tert.-butylazo-1-cyanocyclohexane, the 5% and 10% rates at 100° C. were 2.81 × 10^-^3 moles per liter per minute.
# A solution of styrene containing 5×10^^-4 moles per deciliter of the tert.-alkyl-α-substituted-azoalkane was heated in a constant temperature oil bath (the temperature of the bath depending on the thermal stability of the individual azo compounds) and the change in density, which is a measure of polymer formation, was followed by means of a dilatometer to measure polymerization rates (Rp) at 5% and 10% conversion to polystyrene. The rates obtained at 5% and 10% conversion are recorded in moles per liter per minute in Table LXXXII for the individual azo compounds. Their rate at 10% conversion (f1) is divided by the rate of a standard (f2) at the same temperature and concentration to give an efficiency rating f1 / f2.
# [10] = Emulsion polymerization of ethyl acrylate; details: 3.65 × 10^-^4 moles initiator, 85°-87° C.
# Procedure: An emulsion containing 50 g. of deionized water, 40 g. ethyl acrylate, 4.8 g. Triton X-200, Rohm & Haas anionic surfactant, and 0.0769 g. (3.65 × 10^-^4 moles) α-tert-butylazo-α-methyl-γ-carboxy-butyronitrile (from Example X) was prepared. Approximately 25 g. of the emulsion was placed in a 250 ml. 4-neck round bottom flask equipped with a mechanical stirrer, thermometer and condenser. Nitrogen was passed through the system and the contents of the flask were heated to the reflux temperature of 82° C. When the temperature rose to 90° C., indicating polymerization was occurring, the balance of the emulsion was slowly added from a self-venting addition funnel, maintaining the temperature at 85°-87° C. At the end of the addition the temperature was raised to 95° C. for 5 minutes, a very small amount of hydroquinone added and the reaction cooled to room temperature. The total reaction times was 11/3 hours. The final pH was 3.6. A 5 g. aliquot was weighed into a tared dish and the monomers and water evaporated and the conversion of monomer to polymer was determined to be 94%.
# A similar polymerization was run under the same conditions using 3.65 × 10^-^4 moles of the sodium salt of α-tert-butylazo-α-methyl-γ-carboxybutyronitrile as the initiator. The conversion was 92.3% and the final pH was 6.6.
# [11] = Oxidation of iodide ion to free iodine
# [12] = 180° F. (82.2° C.), 0.128 gram in 20 grams blend
# [13] = bath 212° F. (100° C.), 0.128 gram in 20 grams blend
# [14] = 85° C., standard f2 benzoyl peroxide
# [15] = 180° F. (82.2° C.), 1.0 weight per cent
# [16] = 212° F. (100° C.), 1.0 weight per cent
# [17] = room temperature, 1.0 weight per cent
# [18] = 240° F. (115.6° C.), 1.0 weight per cent
# [19] = 265° F. (129.4° C.), 1.0 weight per cent
compound,measurement,setting,value
"CC(C)(C#N)N=NC(C)(C)C#N [2, 2'-AZOBISISOBUTYRONITRILE]",toxicity,[1],toxic solid
same,solubility,"[2]; common organic solvents: aromatic hydrocarbons, dioxane, alcohol, ether, carbon tetrachloride",very low or limited solubility
same,solubility,[2]; petroleum hydrocarbon solvents,insoluble
"CC(C)(C)N=NC(C)(C)C#N [Example I, Alpha-(tert.-butylazo)isobutyronitrile]",t 1/2,[3]; 70° C.,40.5 h
same,hardness of cured resin,[4],very hard
same,peak exotherm,[4]; [12],381 ° F.
same,time to peak exotherm,[4]; [12],13.3 min
same,quality of cure,[4]; 212° F. (100° C.),excellent cure
same,peak exotherm,[4]; [13],424 ° F.
same,time to peak exotherm,[4]; [13],4.9 min
same,toxicity relative to IXA and its decomposition residue,[5],significantly less toxic
same,solubility,Solubility,soluble in petroleum solvents
same,initiator performance,[6],especially advantageous initiators
"CC(C)(C)N=NC1(C#N)CCCCC1 [Example IV, 1-tert.-butylazo-1-cyanocyclohexane]",t 1/2,[3]; 96.3° C.,10.0 h
same,t 1/2,[3]; 100° C.,6.7 h
same,t 1/2,[3]; 110° C.,2.3 h
same,t 1/2,[3]; 120° C.,.75 h
same,gas produced,[7],146 cc. of gas per gram
same,hardness of cured resin,[4],very hard
same,peak exotherm,"[4]; 212° F. (100° C.), 0.2 gram",414 ° F.
same,time to peak exotherm,"[4]; 212° F. (100° C.), 0.2 gram",10.0 min
same,peak exotherm,"[4]; 240° F. (115.6° C.), 0.2 gram",440 ° F.
same,time to peak exotherm,"[4]; 240° F. (115.6° C.), 0.2 gram",5.3 min
same,toxicity relative to IXA and its decomposition residue,[5],significantly less toxic
same,initiator performance,[6],especially advantageous initiators
"CCCCC(C)(CC(C)C)N=NC(C)(C)C (centres unmarked) [Example LXI, 4-t-Butylazo-2,4-dimethyloctane]",Barcol Hardness,[4]; bath 130° C.,40
same,Minutes to Peak Exotherm,[4]; bath 130° C.,11.1 min
same,peak exotherm,[8]; bath 130° C.,382 ° F
"CC(C)CC(C)(N=NC(C)(C)C)c1ccccc1 (centres unmarked) [Example LXII, 2-t-Butylazo-2-phenyl-4-methylpentane]",f1 /f2 efficiency rating,"[9]; 70° C., standard f2 benzoyl peroxide",1.41
"CC(C)(C)N=NC1(c2ccccc2)CCCCC1 [Example LXIII, 1-t-Butylazo-1-phenylcyclohexane]",f1 /f2 efficiency rating,[9]; [14],1.32
same,Barcol Hardness,[4]; bath 100° C.,35
same,Minutes to Peak Exotherm,[4]; bath 100° C.,4.8 min
same,peak exotherm,[4]; bath 100° C.,435 ° F
"CC(C)(C)N=NC(C)(C#N)CCC(=O)O (stereo not drawn) [Example X, alpha-tert.-butylazo-alpha-methyl-gammacarboxybutyronitrile]",hardness of cured resin,[4],very hard
same,peak exotherm,[4]; [15],410 ° F.
same,time to peak exotherm,[4]; [15],8.5 min
same,peak exotherm,[4]; [16],422 ° F.
same,time to peak exotherm,[4]; [16],3.8 min
same,conversion of monomer to polymer,[10],94%
same,temperature at which it begins to evolve nitrogen,onset,85 °C
"CC(C)(C)N=NC(=O)C(C)(C)C [Example XIX, Pivaloyl tert.-butyldiimide]",hardness of cured resin,[4],very hard
same,peak exotherm,[4]; [15],289 ° F.
same,time to peak exotherm,[4]; [15],4.9 min
same,time to peak exotherm,[4]; [17],34.1 min
same,temperature at which it evolves nitrogen,,35 °C
same,peak exotherm,[8]; [17],139 ° F.
"CC(C)(C)N=NC1(N=[N+]=[N-])CCCCC1 [XLI, 1-t-butylazo-1-azidocyclohexane]",f1 /f2 efficiency rating,"[9]; 100° C., standard f2 t-butyl perbenzoate",0.58
"COC(C)(C)CC(C)(N=NC(C)(C)C)N=[N+]=[N-] (centres unmarked) [XLIV, 2-t-butylazo-2-azido-4-methyl-4-methoxypentane]",f1 /f2 efficiency rating,[9]; [14],1.19
"CC(C)(N=NC(N)=O)c1ccccc1 [XVIII, Tert.-cumylazoformamide]",hardness of cured resin,[4],very hard
same,peak exotherm,[4]; [18],422 ° F.
same,time to peak exotherm,[4]; [18],10.3 min
same,peak exotherm,[4]; [19],454 ° F.
same,time to peak exotherm,[4]; [19],6.0 min
same,oxidizing of iodide ion,[11],oxidized iodide ion to free iodine
same,gas/nitrogen evolution or decomposition,room temperature or on melting,rapidly evolves nitrogen upon melting
"CC(C)(C)N=NC1=CCCCC1 [XXIII, 1(-tert.-butylazo)cyclohexene]",temperature at which it evolves nitrogen,,60 °C
same,gelling of resin,[8]; room temperature,gelled
"COC1(N=NC(C)(C)C)CCCCC1 [XXXV, 1-t-butylazo-1-methoxycyclohexane]",Minutes to Peak Exotherm,[4]; bath 145° C.,5.7 min
same,peak exotherm,[4]; bath 145° C.,396 ° F
same,Barcol Hardness,[8]; bath 145° C.,40
"COC(C)(C)CC(C)(N=NC(C)(C)C)OC (centres unmarked) [XXXVIII, 2-t-butylazo-4-methyl-2,4-dimethoxypentane]",f1 /f2 efficiency rating,"[9]; 115° C., standard f2 di-t-butyl peroxide",0.38
CC(C)(C)N=NC(C)(C#N)CCC(=O)O (stereo not drawn) [sodium salt of α-tert-butylazo-α-methyl-γ-carboxybutyronitrile],conversion of monomer to polymer,[10],92.3%

# — patent US4007165A (priority 1974, dated 1977)
